Results: ChEMBL document CHEMBL6103573, “Discovery of novel thienopyridine indole derivatives as inhibitors of tubulin polymerization targeting the colchicine-binding site with potent anticancer activities” (Eur J Med Chem, 2025)
The source made the active and inactive calls. No cut-off for these calls is given here.

What was measured:
MGC-803 [1] = test: Antitumor activity against human MGC-803 cells xenografted in female BALB/c-nu nude mouse assessed as reduction in Ki67 expression in tumor at 5 mg/kg, po administrated […] for 11 times and measured after 21 days by immunohistochemical analysis; assay type: functional, organism-based; details: time 21.0 day
HGC-27 [2] = test: Anti-migratory activity against human HGC-27 cells assessed as reduction in wound healing area measured after 24 hrs by wound healing assay; assay type: functional, cell-based; details: dose 0.5-1 nmol/L
Tubulin (Homo sapiens) [3] = target: T1, Tubulin (Homo sapiens) (UniProt P68371+Q9H4B7+P0DPH7+P68366+Q13509+Q71U36+P04350+Q3ZCM7+P07437+P68363+Q9BQE3+Q6PEY2+Q13885+Q9BVA1+Q9BUF5); test: Disruption of microtubule network in human HGC-27 cells assessed as irregular cellular morphology at 0.25 to 2.0 nmol/L incubated for 24 hrs by DAPI staining based fluorescence microscopic analysis; assay type: cell-based; details: dose 0.25-2 nmol/L
MGC-803 [4] = test: Induction of apoptosis in human MGC-803 cells assessed as early apoptotic cells at 0.5 nmol/L incubated for 48 hrs by Annexin V-FITC/propidium iodide staining based flow cytometry analysis (reference value: 0.83 %); assay type: functional
HUVEC [5] = test: Anti-angiogenesis activity in HUVEC cells assessed as effect on cell vitality at <= 1 nmol/L measured within 24 hrs; assay type: functional, cell-based; details: Homo sapiens
MGC-803 [6] = test: Induction of apoptosis in human MGC-803 cells assessed as late apoptotic cells at 0.25 nmol/L incubated for 48 hrs by Annexin V-FITC/propidium iodide staining based flow cytometry analysis (reference value: 2.22 %); assay type: functional
HGC-27 [7] = test: Induction of apoptosis in human HGC-27 cells assessed as increase in cleaved Caspase-9 expression at 0.25 to 2.0 nmol/L incubated for 48 hrs by Western blotting analysis; assay type: functional, cell-based; details: dose 0.25-2 nmol/L
MGC-803 [8] = test: Anti-migratory activity against human MGC-803 cells assessed as decrease in cell migration at 1 nmol/L measured after 24 hrs by wound healing assay relative to control; assay type: functional; design: scale not given: the % may be the effect or the level left
HGC-27 [9] = test: Induction of apoptosis in human HGC-27 cells incubated for 48 hrs by Annexin V-FITC/propidium iodide staining based flow cytometry analysis; assay type: functional, cell-based; details: dose 0.25-2 nmol/L
MGC-803 [10] = test: Induction of apoptosis in human MGC-803 cells assessed as late apoptotic cells at 1.0 nmol/L incubated for 48 hrs by Annexin V-FITC/propidium iodide staining based flow cytometry analysis (reference value: 2.22 %); assay type: functional
NCI-H1975 = test: Antiproliferative activity against human NCI-H1975 cells assessed as inhibition of cell proliferation incubated for 48 hrs by MTT assay; assay type: functional, cell-based; details: NCI-H1975, 48 h
HUVEC [11] = test: Anti-angiogenesis activity in HUVEC cells assessed as reduction in cell viability by measuring survival rate at 2 nmol/L incubated for 12 hrs by MTT assay relative to control; assay type: functional; details: Homo sapiens, read-out: Survival
HGC-27 [12] = test: Induction of apoptosis in human HGC-27 cells assessed as cell contraction at 0.25 to 2.0 nmol/L incubated for 48 hrs by bright field microscopic analysis; assay type: functional, cell-based; details: dose 0.25-2 nmol/L
NCI-N87 = test: Antiproliferative activity against human NCI-N87 cells assessed as inhibition of cell proliferation incubated for 48 hrs by MTT assay; assay type: functional, cell-based; details: NCI-N87, 48 h
HGC-27 [13] = test: Induction of apoptosis in human HGC-27 cells assessed as increase in dead to live cells ratio at 0.25 to 2.0 nmol/L incubated for 48 hrs by Calcein-AM/PI staining based analysis; assay type: functional, cell-based; details: dose 0.25-2 nmol/L
Tubulin (Homo sapiens) [14] = target: T1, Tubulin (Homo sapiens); test: Disruption of microtubule network in human MGC-803 cells assessed as irregular cellular morphology at 0.25 to 2.0 nmol/L incubated for 24 hrs by DAPI staining based fluorescence microscopic analysis; assay type: cell-based; details: dose 0.25-2 nmol/L
MGC-803 [15] = test: Antiproliferative activity against human MGC-803 cells by MTT assay; assay type: functional, cell-based; details: dose 0.25-2 nmol/L
MGC-803 [16] = test: Induction of cell cycle arrest at G2 phase in human MGC-803 cells assessed as increase in p-Histone H3 level at 0.25 to 2.0 nmol/L measured after 48 hrs by Western blot analysis; assay type: functional, cell-based; details: dose 0.25-2 nmol/L
HUVEC [17] = test: Anti-angiogenesis activity in HUVEC cells assessed as reduction in cell viability incubated from 12 to 48 hrs by MTT assay; assay type: functional, cell-based; details: Homo sapiens, dose < 2.0 nmol/L, time 12-48 hrs
ECa-109 cell line = test: Antiproliferative activity against human EC109 cells assessed as inhibition of cell proliferation incubated for 48 hrs by MTT assay; assay type: functional, cell-based; details: ECa-109, 48 h
MGC-803 [18] = test: Induction of apoptosis in human MGC-803 cells assessed as nuclei shrinkage at 0.25 to 2.0 nmol/L incubated for 48 hrs by DAPI staining based analysis; assay type: functional, cell-based; details: dose 0.25-2 nmol/L
HGC-27 [19] = test: Induction of apoptosis in human HGC-27 cells assessed as appearance of ruptured cells at 0.25 to 2.0 nmol/L incubated for 48 hrs by bright field microscopic analysis; assay type: functional, cell-based; details: dose 0.25-2 nmol/L
HGC-27 [20] = test: Induction of apoptosis in human HGC-27 cells assessed as nuclei shrinkage at 0.25 to 2.0 nmol/L incubated for 48 hrs by DAPI staining based analysis; assay type: functional, cell-based; details: dose 0.25-2 nmol/L
Tubulin (Homo sapiens) [21] = target: T1, Tubulin (Homo sapiens); test: Disruption of microtubule network in human MGC-803 cells assessed as disruption of mitosis at 0.25 to 2.0 nmol/L incubated for 24 hrs by DAPI staining based fluorescence microscopic analysis; assay type: cell-based; details: dose 0.25-2 nmol/L
HGC-27 [22] = test: Induction of cell cycle arrest in human HGC-27 cells assessed as downregulation of Wee1 level measured after 48 hrs by Western blot analysis; assay type: functional, cell-based; details: dose 0.25-2 nmol/L
MGC-803 [23] = test: Inhibition of colony formation in human MGC-803 cells incubated for 7 days by crystal violet staining based colony formation assay; assay type: functional, cell-based; details: dose 0.1-0.5 nmol/L, time 7.0 day
HGC-27 [24] = test: Induction of apoptosis in human HGC-27 cells assessed as increase in cleaved Caspase-3 expression at 0.25 to 2.0 nmol/L incubated for 48 hrs by Western blotting analysis; assay type: functional, cell-based; details: dose 0.25-2 nmol/L
HUVEC [25] = test: Anti-angiogenesis activity in HUVEC cells assessed as reduction in cell viability by measuring survival rate at 2 nmol/L incubated for 48 hrs by MTT assay relative to control; assay type: functional; details: Homo sapiens, read-out: Survival
MGC-803 [26] = test: Antiproliferative activity against human MGC-803 cells assessed as inhibition of cell proliferation incubated for 48 hrs by MTT assay; assay type: functional, cell-based; details: MGC-803, 48 h
HGC-27 [27] = test: Induction of apoptosis in human HGC-27 cells assessed as early apoptotic cells at 1.5 nmol/L incubated for 48 hrs by Annexin V-FITC/propidium iodide staining based flow cytometry analysis (reference value: 2.04 %); assay type: functional
HUVEC [28] = test: Anti-migratory activity against HUVEC cells assessed as wound healing rate at 0.5 nmol/L measured after 24 hrs by wound healing assay (reference value: 97 %); assay type: functional, Homo sapiens
[29] = Toxicity in female BALB/c-nu nude mouse xenografted with human MGC-803 cells assessed as change in heart morphology at 5 mg/kg, po administrated every other day for 11 times and measured after 21 days by hematoxylin and eosin staining based analysis; assay type: organism-based; details: in vivo, 504 h, time 21 day
HUVEC [30] = test: Anti-vascular activity in HUVEC cells assessed as reduction in capillary-like tubules with multi-center junctions incubated for 5 hrs by Matrigel based inverted microscopic analysis; assay type: functional, cell-based; details: Homo sapiens, dose 0.5-2 nmol/L
HGC-27 [31] = test: Induction of apoptosis in human HGC-27 cells assessed as appearance of bright cells at 0.25 to 2.0 nmol/L incubated for 48 hrs by bright field microscopic analysis; assay type: functional, cell-based; details: dose 0.25-2 nmol/L

In the case of CN(c1ccc2c(ccn2C)c1)c1nc(N2CCCC2)nc2sccc12, the Activity (MGC-803 [1]) is reported as “Active”, the Activity (HGC-27 [2]) is reported as “Dose-dependent-effect” and the Activity (Tubulin (Homo sapiens) [3]) is reported as “Active”. For the same molecule, the Activity (MGC-803 [4]) was 3.33%, the Activity (HUVEC [5]) was “Active; Minimal Impact Observed” and the Activity (MGC-803 [6]) was 3.42%. For the same molecule, the Activity (HGC-27 [7]) was “Active”, the Activity (MGC-803 [8]) was 24% and the Activity (HGC-27 [9]) was “Dose-dependent-effect”. The Activity (MGC-803 [10]) was 3.78%, the IC50 (NCI-H1975) was 2.96 nM and the viability at 0.002 µM (HUVEC [11]) was 75.6%. For the same molecule, the Activity (HGC-27 [12]) was “Active”, the IC50 (NCI-N87) was 2.14 nM and the Activity (HGC-27 [13]) was “Active”. The Activity (Tubulin (Homo sapiens) [14]) was “Active”, the Activity (MGC-803 [15]) was “Dose-dependent-effect” and the Activity (MGC-803 [16]) was “Active”. The Activity (HUVEC [17]) was “Dose-dependent-effect”, the IC50 (ECa-109 cell line) was 2.19 nM and the Activity (MGC-803 [18]) was “Active”. The Activity (HGC-27 [19]) was “Active”, the Activity (HGC-27 [20]) was “Active” and the Activity (Tubulin (Homo sapiens) [21]) was “Active”. The Activity (HGC-27 [22]) was “Dose-dependent-effect”, the inhibition (MGC-803 [23]) was “Dose-dependent-effect” and the Activity (HGC-27 [24]) was “Active”. The viability at 0.002 µM (HUVEC [25]) was 28.3%, the IC50 (MGC-803 [26]) was 1.61 nM and the Activity (HGC-27 [27]) was 15.58%. For the same molecule, the Activity (HUVEC [28]) was 82%, the Activity [29] was “Non-toxic” and the Activity (HUVEC [30]) was “Dose-dependent-effect”. For the same molecule, the Activity (HGC-27 [31]) was “Active”.
